IC50 data for one molecule are collected here from patent US11840527B2, “Non-fused thiophene derivatives and their uses” (ENYO PHARMA, priority 2018, dated 2023).

Common to all, as to test: Cytotoxicity, propidium iodide-based monolayer assay
Type in all cases: cell-based

One assay relates to PRXF PC-3M. The following applies: Homo sapiens, 96 h, prostate adeno carcinoma, four days of treatment, T/C=50%, read-out: Absolute IC50. On the procedure: (§1) The cytotoxicity was tested for compounds of the invention on five different cell-lines, namely LXFL 1121, MAXF 401, MMXF L-636, PRXF PC-3M and UXF 1138 which are respectively lung large cell carcinoma, breast adeno carcinoma, multiple myeloma, prostate adeno carcinoma and uterine sarcoma.
(§2) Therefore, the compounds have a cytotoxicity against tumor cells and can be used for treating cancer. Materials and Methods Compound Handling A working stock solution of the test compounds was prepared in DMSO at a concentration of 33 mM or 8.25 mM, and small aliquots were stored at −20° C. On each day of an experiment, a frozen aliquot of the working stock solution was thawed and stored at room temperature prior to and during treatment. All liquid handling steps were performed using the Tecan Freedom EVO 200 platform. First, serial 2-fold dilutions of the 33 mM DMSO working stock solution were done in DMSO. The DMSO dilutions were then diluted 1:22 into cell culture medium in an intermediate dilution plate. Finally, 10 μl taken from the intermediate dilution plate were transferred to 140 μl/well of the final assay plate. Thus, the DMSO serial dilutions were diluted 1:330 with cell culture medium, and the DMSO concentration in the assay was 0.3% v/v. Tumor Cell Lines The cell lines used in this study were derived from solid tumors as well as from hematological malignancies. Cell lines were routinely passaged once or twice weekly and maintained in culture for up to 20 passages. Most cell lines were grown at 37° C. in a humidified atmosphere with 5% CO2 in RPMI 1640 medium (25 mM HEPES, with L-glutamine, #FG1385, Biochrom, Berlin, Germany) supplemented with 10% (v/v) fetal calf serum (Sigma, Taufkirchen, Germany) and 0.05 mg/mL gentamicin (Life Technologies, Karlsruhe, Germany). […] Briefly, cells were harvested from exponential phase cultures, counted and plated in 96 well flat-bottom microtiter plates at a cell density of 4,000 to 40,000 cells/well dependent on the cell line's growth rate. […] After an incubation period of 1-2 hours at room temperature, fluorescence (FU) was measured using the Enspire Multimode Plate Reader (excitation λ=530 nm, emission λ=620 nm) to quantify the amount of attached viable cells. Data Evaluation An assay was considered fully evaluable if the following quality control criteria were fulfilled: • Z′-factor calculated within the assay plate ≥0.5 • control/background ratio >3.0 • coefficient of variation in the growth control wells ≤30% Drug effects were expressed in terms of the percentage of the fluorescence signal, obtained by comparison of the mean signal in the treated wells with the mean signal of the untreated controls (expressed by the test-versus-control value, T/C-value [%]): […]

For another assay, the system named is MMXF L-363. The note with it: Homo sapiens, 96 h; MMXF L-363, multiple myeloma; four days of treatment; T/C=50%; read-out: Absolute IC50. On the procedure:
as §1, §2

For a further assay, the system named is UXF 1138. The following applies: 96 h; UXF 1138, uterine sarcoma; four days of treatment; T/C=50%; read-out: Absolute IC50. On the procedure:
as §1, §2

The next assay relates to MAXF 401. The note with it: Homo sapiens, MAXF401, 96 h; MAXF 401, breast adeno carcinoma; four days of treatment; T/C=50%; read-out: Absolute IC50. The method, then: as §1, §2

The IC50 is the concentration needed to halve the response being measured. On to `O=C(Nc1scc(-c2ccc(Cl)c(F)c2)c1C(=O)O)c1ccccc1` [Compound #2, 2-Benzamido-4-(4-chloro-3-fluoro-phenyl)thiophene-3-carboxylic acid], for which the IC50 in the assay with PRXF PC-3M was 4.74 µM; in the assay on MMXF L-363, 11.9 µM; in the assay with UXF 1138 it was 4.48 µM; in the assay with MAXF 401, 6.56 µM.
